Experimental findings from patent US10214542B2, “Modified macrocyclic compounds” (BAYER PHARMA AKTIENGESELLSCHAFT, priority 2015, dated 2019) are described below.

For one test, the target named is T1, CDK2/CycE (Homo sapiens, UniProt P24941).
T1 construct: GST; purchased ProQinase GmbH (Freiburg, Germany); host or cells: insect cells (Sf9)
Put plainly: CDK2/CycE high ATP kinase assay (TR-FRET, Method 2b). In kind it is biochemical. Particulars: 2 mM ATP. The procedure:
2b. CDK2/CycE High ATP Kinase Assay:
CDK2/CycE-inhibitory activity of compounds of the present invention at 2 mM adenosine-tri-phosphate (ATP) was quantified employing the CDK2/CycE TR-FRET (TR-FRET=Time Resolved Fluorescence Resonance Energy Transfer) assay as described in the following paragraphs.
Recombinant fusion proteins of GST and human CDK2 and of GST and human CycE, expressed in insect cells (Sf9) and purified by Glutathion-Sepharose affinity chromatography, were purchase from ProQinase GmbH (Freiburg, Germany). As substrate for the kinase reaction biotinylated peptide biotin-Ttds-YISPLKSPYKISEG (C-terminus in amid form) was used which can be purchased e.g. from the company JERINI peptide technologies (Berlin, Germany).
For the assay 50 nl of a 100 fold concentrated solution of the test compound in DMSO was pipetted into a black low volume 384 well microtiter plate (Greiner Bio-One, Frickenhausen, Germany), 2 μl of a solution of CDK2/CycE in aqueous assay buffer [50 mM Tris/HCl pH 8.0, 10 mM MgCl2, 1.0 mM dithiothreitol, 0.1 mM sodium ortho-vanadate, 0.01% (v/v) Nonidet-P40 (Sigma)] were added and the mixture was incubated for 15 min at 22° C. to allow pre-binding of the test compounds to the enzyme before the start of the kinase reaction. Then the kinase reaction was started by the addition of 3 μl of a solution ATP (3.33 mM=>final conc. in the 5 μl assay volume is 2 mM) and substrate (1.25 μM=>final conc. in the 5 μl assay volume is 0.75 μM) in assay buffer and the resulting mixture was incubated for a reaction time of 25 min at 22° C. The concentration of CDK2/CycE was adjusted depending of the activity of the enzyme lot and was chosen appropriate to have the assay in the linear range, typical concentrations were in the range of 15 ng/ml. The reaction was stopped by the addition of 5 μl of a solution of TR-FRET detection reagents (0.2 μM streptavidine-XL665 [Cisbio Bioassays, Codolet, France] and 1 nM anti-RB(pSer807/pSer811)-antibody from BD Pharmingen [#558389] and 1.2 nM LANCE EU-W1024 labeled anti-mouse IgG antibody [Perkin-Elmer, product no. AD0077, as an alternative a Terbium-cryptate-labeled anti-mouse IgG antibody from Cisbio Bioassays can be used]) in an aqueous EDTA-solution (100 mM EDTA, 0.2% (w/v) bovine serum albumin in 100 mM HEPES pH 7.5).
The resulting mixture was incubated 1 h at 22° C. to allow the formation of complex between the phosphorylated biotinylated peptide and the detection reagents. Subsequently the amount of phosphorylated substrate was evaluated by measurement of the resonance energy transfer from the Eu-chelate to the streptavidine-XL. Therefore, the fluorescence emissions at 620 nm and 665 nm after excitation at 350 nm were measured in a TR-FRET reader, e.g. a Rubystar (BMG Labtechnologies, Offenburg, Germany) or a Viewlux (Perkin-Elmer). The ratio of the emissions at 665 nm and at […] was taken as the measure for the amount of phosphorylated substrate. The data were normalised (enzyme reaction without inhibitor=0% inhibition, all other assay components but no enzym=100% inhibition).

A further test has as its system HeLa cells. The test is described as follows: Proliferation assay, crystal violet (Method 3). In kind it is cell-based, human. To be noted: 4 days, read-out: Inhibition of HeLa cell proliferation IC50. The procedure:
Cultivated tumour cells (HeLa, human cervical tumour cells, ATCC CCL-2; NCI-H460, human non-small cell lung carcinoma cells, ATCC HTB-177; DU 145, hormone-independent human prostate carcinoma cells, ATCC HTB-81; HeLa-MaTu-ADR, multidrug-resistant human cervical carcinoma cells, EPO-GmbH Berlin; Caco-2, human colorectal carcinoma cells, ATCC HTB-37; B16F10, mouse melanoma cells, ATCC CRL-6475) were plated at a density of 5,000 cells/well (DU145, HeLa-MaTu-ADR), 3,000 cells/well (NCI-H460, HeLa), 1,500 cells/well (Caco-2), or 1,000 cells/well (B16F10) in a 96-well multititer plate in 200 μL of their respective growth medium supplemented 10% fetal calf serum. After 24 hours, the cells of one plate (zero-point plate) were stained with crystal violet (see below), while the medium of the other plates was supplemented with the test substances in various concentrations (0 μM, as well as in the range of 0.0001-10 μM; the final concentration of the solvent dimethyl sulfoxide was adjusted to 0.1%) using a Hewlett-Packard HP D300 Digital Dispenser. The cells were incubated for 4 days in the presence of test substances. Cell proliferation was determined by staining the cells with crystal violet: the cells were fixed by adding 20 μl/measuring point of an 11% glutaric aldehyde solution for 15 minutes at room temperature. After three washing cycles of the fixed cells with water, the plates were dried at room temperature. The cells were stained by adding 100 μl/measuring point of a 0.1% crystal violet solution (pH 3.0). After three washing cycles of the stained cells with water, the plates were dried at room temperature. The dye was dissolved by adding 100 μl/measuring point of a 10% acetic acid solution. The extinction was determined by photometry at a wavelength of 595 nm. The change of cell number, in percent, was calculated by normalization of the measured values to the extinction values of the zero-point plate (=0%) and the extinction of the untreated (0 μm) cells (=100%). The IC50 values (inhibitory concentration at 50% of maximal effect) were determined by means of a 4 parameter fit.

Molecules are shown by their SMILES. Like-named read-outs stand apart in the source and are kept apart here. Bounds are passed on as bounds.

As to `CS(=O)(Cc1cc2nc(c1)Nc1cc(c(F)cn1)-c1ccc(F)cc1OCCCCN2)=NC(=O)OCc1ccccc1` (racemic) [Example 2, (rac)-Benzyl[{[16,20-difluoro-3,4,5,6-tetrahydro-2H,12H-11,7-(azeno)-13,17-(metheno)-1,6,12,14-benzoxatriazacyclononadecin-9-yl]methyl}(methyl)oxido-λ^6-sulfanylidene]carbamate], the IC50 on CDK2/CycE is 8050 nM; in the test on HeLa cells, > 100 nM; with HeLa cells (Homo sapiens, 96 h), 77 nM.

`CS(=N)(=O)Cc1cc2nc(c1)Nc1cc(c(F)cn1)-c1ccc(F)cc1OCCCCN2` (racemic) [Example 3, (rac)-16,20-Difluoro-9-[(S-methylsulfonimidoyl)methyl]-3,4,5,6-tetrahydro-2H,12H-11,7-(azeno)-13,17-(metheno)-1,6,12,14-benzoxatriazacyclononadecine]: at CDK2/CycE, the IC50 stood at 650 nM.

In the case of `C[S+]([O-])Cc1cc2nc(c1)OCCCCc1cc(F)ccc1-c1cc(ncc1F)N2` (racemic) [Example 5, (rac)-2,18-Difluoro-9-[(methylsulfinyl)methyl]-13,14,15,16-tetrahydro-6H-7,11-(azeno)-5,1-(metheno)-12,4,6-benzoxadiazacyclooctadecine], the IC50 is 8250 nM against CDK2/CycE and 955 nM in the test with HeLa cells (Homo sapiens, 96 h).

As for `CC(C)(C)OC(=O)N=S(C)(=O)Cc1cc2nc(c1)Nc1cc(c(F)cn1)-c1ccc(F)cc1OCCCN2` (racemic) [Example 7, (rac)-tert-butyl[{[15,19-difluoro-2,3,4,5-tetrahydro-11H-10,6-(azeno)-16,12-(metheno)-1,5,11,13-benzoxatriazacyclooctadecin-8-yl]methyl}(methyl)oxido-λ^6-sulfanylidene]carbamate], the IC50 against CDK2/CycE came out at 61 nM; in the test with HeLa cells (Homo sapiens, 96 h), 32 nM.

Consider `CS(=N)(=O)Cc1cc2nc(c1)Nc1cc(c(F)cn1)-c1ccc(F)cc1OCCCN2` (racemic) [Example 8, (rac)-15,19-difluoro-8-[(S-methylsulfonimidoyl)methyl]-2,3,4,5-tetrahydro-11H-10,6-(azeno)-16,12-(metheno)-1,5,11,13-benzoxatriazacyclooctadecine], for which the IC50 against CDK2/CycE was 29 nM; in the test on HeLa cells (Homo sapiens, 96 h), 3.3 nM.

In the case of `CC(C)(C)OC(=O)N=S(C)(=O)Cc1cc2nc(c1)Nc1cc(c(F)cn1)-c1ccc(F)cc1OCCCCCN2` (racemic) [Example 9, (rac)-tert-butyl[{[17,21-difluoro-2,3,4,5,6,7-hexahydro-13H-12,8-(azeno)-14,18-(metheno)-1,7,13,15-benzoxatriazacycloicosin-10-yl]methyl}(methyl)oxido-λ^6-sulfanylidene]carbamate], the IC50 is 253 nM against CDK2/CycE and 33 nM in the test on HeLa cells (Homo sapiens, 96 h).

For the compound `CS(=N)(=O)Cc1cc2nc(c1)Nc1cc(c(F)cn1)-c1ccc(F)cc1OCCCCCN2` (racemic) [Example 10, (rac)-17,21-difluoro-10-[(S-methylsulfonimidoyl)methyl]-2,3,4,5,6,7-hexahydro-13H-12,8-(azeno)-14,18-(metheno)-1,7,13,15-benzoxatriazacycloicosine], the IC50 was 102 nM against CDK2/CycE and 14 nM in the test with HeLa cells (Homo sapiens, 96 h).

Turning to `CN1CCCCOc2cc(F)ccc2-c2cc(ncc2F)Nc2cc(CS(C)(=N)=O)cc1n2` (racemic) [Example 11, (rac)-16,20-difluoro-6-methyl-9-[(S-methylsulfonimidoyl)methyl]-3,4,5,6-tetrahydro-2H-7,11-(azeno)-17,13-(metheno)-1,6,12,14-benzoxatriazacyclononadecine], the IC50 against CDK2/CycE was 80 nM; in the test with HeLa cells (Homo sapiens, 96 h), 10 nM.

In the case of `CC(C)(C)OC(=O)N=S(C)(=O)Cc1cc2cc(c1)OCCCNc1cc(F)ccc1-c1nc(ncc1F)N2` (racemic) [Example 13, (rac)-tert-butyl[{[15,19-difluoro-1,2,3,4-tetrahydro-16,12-(azeno)-6,10-(metheno)-5,1,11,13-benzoxatriazacyclooctadecin-8(11H)-yl]methyl}(methyl)oxido-λ^6-sulfanylidene]carbamate], the IC50 at CDK2/CycE came out at 1280 nM; in the test on HeLa cells (Homo sapiens, 96 h), 78 nM.

At CDK2/CycE, `CS(=N)(=O)Cc1cc2cc(c1)OCCCNc1cc(F)ccc1-c1nc(ncc1F)N2` (racemic) [Example 14, rac-15,19-difluoro-8-[(S-methylsulfonimidoyl)methyl]-1,2,3,4-tetrahydro-16,12-(azeno)-6,10-(metheno)-5,1,11,13-benzoxatriazacyclooctadecine] displayed an IC50 of 94 nM.

On to `CC(C)(C)OC(=O)N=S(C)(=O)Cc1cc2cc(c1)OCCCCNc1cc(F)ccc1-c1nc(ncc1F)N2` (racemic) [Example 15, (rac)-tert-butyl[{[16,20-difluoro-2,3,4,5-tetrahydro-1H,12H-13,17-(azeno)-11,7-(metheno)-6,1,12,14-benzoxatriazacyclononadecin-9-yl]methyl}(methyl)oxido-λ^6-sulfanylidene]carbamate], for which the IC50 against CDK2/CycE came to 3350 nM; with HeLa cells (Homo sapiens, 96 h), 33 nM.

Compound `CN1CCCCOc2cc(F)ccc2-c2nc(ncc2F)Nc2cc(CS(C)(=N)=O)cc1c2` (racemic) [Example 23, (rac)-16,20-difluoro-6-methyl-9-[(S-methylsulfonimidoyl)methyl]-3,4,5,6-tetrahydro-2H,12H-13,17-(azeno)-11,7-(metheno)-1,6,12,14-benzoxatriazacyclononadecine] came in with an IC50 on CDK2/CycE of 1320 nM.

As to `CC(C)(C)OC(=O)N=S(C)(=O)Cc1cc2cc(c1)Nc1ncc(F)c(n1)-c1ccc(F)cc1OCCCCN2` (racemic) [Example 24, (rac)-tert-butyl[{[16,20-difluoro-3,4,5,6-tetrahydro-2H,12H-13,17-(azeno)-11,7-(metheno)-1,6,12,14-benzoxatriazacyclononadecin-9-yl]methyl}(methyl)oxido-λ^6-sulfanylidene]carbamate], on CDK2/CycE, the IC50 is > 20000 nM.

In the case of `CSCc1cc2nc(c1F)N(C)CCCCOc1cc(F)ccc1-c1cc(ncc1F)N2` [Example 12, 8,16,20-trifluoro-6-methyl-9-[(methylsulfanyl)methyl]-3,4,5,6-tetrahydro-2H,12H-11,7-(azeno)-13,17-(metheno)-1,6,12,14-benzoxatriazacyclononadecine], the IC50 in the test with HeLa cells (Homo sapiens, 96 h) is 851 nM.
